Assay results reported in patent US6833372B2, “Non-peptide GnRH agents, Pharmaceutical compositions, and methods for their use” (Pfizer, Inc., priority 2002, dated 2004).
Values after ≈ are worked out from the molar mass of the structure shown. Where two headings read alike, the source gives them in different places.

Legend:
human GnRH receptors = biological target: T1, human GnRH receptors (Homo sapiens, UniProt P30968); assay: Radioligand binding: inhibition of 125I-GnRH-A binding to human GnRH receptor membranes; conditions: HEK 293 cell membranes
T1 construct: expressed in transfected cells; host or cells: HEK 293 cells, stably transfected; membranes
T1 sequence (P30968 1-328): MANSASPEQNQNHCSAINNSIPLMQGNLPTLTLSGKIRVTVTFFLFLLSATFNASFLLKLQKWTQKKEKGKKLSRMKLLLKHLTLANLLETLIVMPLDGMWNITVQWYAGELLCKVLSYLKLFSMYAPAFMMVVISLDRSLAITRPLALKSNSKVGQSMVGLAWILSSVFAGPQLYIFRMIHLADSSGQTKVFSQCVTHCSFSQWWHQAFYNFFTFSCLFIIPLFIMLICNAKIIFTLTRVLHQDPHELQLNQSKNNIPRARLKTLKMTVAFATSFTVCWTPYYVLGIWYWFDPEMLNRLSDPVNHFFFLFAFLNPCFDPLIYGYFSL
Method in brief: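 Membranes from rat pituitaries, or HEK 293 cells stably expressing mouse or human receptor, incubated 1 hour at room temperature with ~0.04-0.06 nM radioligand (HEPES pH 7.4, EDTA, MgCl2, BSA) and competitor at 0.1-10,000 nM. Bound ligand collected by GF/C filtration and counted; Ki derived from IC50 by Cheng-Prusoff.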

mouse GnRH receptors = biological target: T2, mouse GnRH receptors (Mus musculus, UniProt Q01776); assay: Radioligand binding: inhibition of 125I-GnRH-A binding to mouse GnRH receptor membranes; conditions: HEK 293 cell membranes
T2 construct: expressed in transfected cells; host or cells: HEK 293 cells, stably transfected; membranes
T2 sequence (Q01776 1-327): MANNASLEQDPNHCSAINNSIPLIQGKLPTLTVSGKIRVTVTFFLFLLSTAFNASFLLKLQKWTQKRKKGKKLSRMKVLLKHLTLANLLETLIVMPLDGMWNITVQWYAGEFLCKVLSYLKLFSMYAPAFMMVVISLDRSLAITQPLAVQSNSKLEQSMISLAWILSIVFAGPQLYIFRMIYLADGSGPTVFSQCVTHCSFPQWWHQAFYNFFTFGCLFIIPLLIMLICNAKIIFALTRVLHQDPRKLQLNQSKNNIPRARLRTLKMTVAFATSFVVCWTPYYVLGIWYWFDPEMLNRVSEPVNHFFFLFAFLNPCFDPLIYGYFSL
Description: HEK 293 cells stably transfected with mouse or human GnRH receptors as described above were grown in Dulbecco's high-glucose, modified Eagle's medium (DMEM) supplemented with 0.2% G418, 10% fetal bovine serum (FBS) and 100 U/mL penicillin/streptomycin. GH3 cells stably transfected with the rat GnRH receptor (GGH3) were provided by Dr. William Chin (Harvard Medical School, Boston, Mass.). These cells have been extensively characterized previously (Kaiser et al., 1997). The cells were grown in low glucose DMEM containing: 100U/mL penicillin/streptomycin, 0.6% G418 and 10% heat-inactivated FBS.
HEK 293 cells containing mouse or human receptors, or rat pituitaries (Pel Freez Biologicals, Rogers, Ark.) were homogenized in buffer A containing: 50 mM Tris (pH 7.4), 0.32 M sucrose, 2 mM EGTA, 1 mM PMSF, 5 μg/ml aprotinen, 5 μg/ml Pepstatin A, and 1 μg/ml leupeptin. Homogenized cells were centrifuged at 4° C. at 20,000×g for 25 minutes, re-suspended in buffer A and re-centrifuged at 4° C. at 20,000×g for an additional 25 minutes. Total membrane protein was determined with a BCA kit (Pierce, Rockford, Ill.). Membranes were stored at −70° C. at a final membrane protein concentration of approximately 5 mg/ml.
The radioiodinated agonist analog of GnRH, [des-Gly^10,D-Ala^6]GnRH ethylamide (^125I-GnRH-A), was used as the radioligand. […] The reaction mixture was vortexed and incubated for 1 minute at room temperature. After one minute, the mixture was vortexed and allowed to incubate for an additional minute. 2 ml of 0.5 M acetic acid/1% BSA was added to the reaction tube and the mixture was added to a C18 Sep-Pak cartridge. The cartridge was washed with subsequent washes of 5 ml H2O and 5 ml 0.5 M acetic acid and then eluted with 5×1 ml of 60% CH3CN/40% 0.5 M acetic acid. The eluate was diluted with 3× volume of HPLC buffer A (0.1% TFA in H2O) and loaded onto a C18 column. The iodinated product was eluted over 20-25 min with a gradient of 25-100% CH3CN containing 0.1% TFA. The radioactive fractions (750 μl/fraction) were collected into clean polypropylene tubes containing 100 μl of 10% BSA. Fractions were assessed for biological activity by radioligand binding. Specific activity of the radioligand was approximately 2200 Ci/mmol.
Membranes were diluted to 0.01-0.5 mg/ml (depending upon the species of receptor) with assay buffer containing 50 mM HEPES (pH 7.4), 1 mM EDTA, 2.5 mM MgCl2, and 0.1% BSA. Membranes (diluted to utilize similar receptor numbers between assays) were incubated with approximately 0.04-0.06 nM ^125I-GnRH-A in the presence or absence of competing agents (0.1-10,000 nM) in a total volume of 200 μl in 96-well polypropylene plates for 1 hour at room temperature. Assays were stopped by rapid filtration onto 96-well GF/C filters soaked in 0.1% polyethylenimine (PEI) utilizing a Packard 96-well cell harvester. Filters were washed three times with ice-cold PBS (50 mM NaPO4, 0.9% NaCl, 2 mM MgCl2, and 0.02% NaN3, pH 7.4). 35 μl of scintillation cocktail was added to each filter well and filters were counted on a Packard Topcount. Control dose-response curves were generated to GnRH (0.1 nM-100 nM) in each competition binding experiment. Ki values were calculated from IC50 values according to Cheng et al., Biochemical Pharmacol. 22: 3099-3108, 1973. [formula]

[1] = In vitro metabolism: disappearance of parent compound in rat liver microsomes (male, female); type: in vitro ADME; conditions: 5 uM compound, 30 minutes 37° C.; for Fem. Rat (FR) % rem. 30′: female rat liver microsomes; for Male Rat (MR) % rem. 30′: male rat liver microsomes
Method in brief: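 Microsomes from human, rat (male, female), dog and monkey liver incubated with 5 uM compound, 0.5 mg/ml protein and 2 mM NADPH in 50 mM K phosphate, pH 7.4, for 30 min at 37° C. Reaction stopped with acetonitrile; parent compound remaining measured by LC-MS.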

Rat plasma % remain = type: in vitro ADME
H S A = H S A (Homo sapiens, UniProt P02768); assay: H S A column α; type: in vitro ADME
[2] = Solubility at pH2 and pH6; type: physicochemical
[3] = pH 6, aqueous buffer, pH6, read-out: Solubility μg/ml pH6

Chain of H S A (P02768 25-609): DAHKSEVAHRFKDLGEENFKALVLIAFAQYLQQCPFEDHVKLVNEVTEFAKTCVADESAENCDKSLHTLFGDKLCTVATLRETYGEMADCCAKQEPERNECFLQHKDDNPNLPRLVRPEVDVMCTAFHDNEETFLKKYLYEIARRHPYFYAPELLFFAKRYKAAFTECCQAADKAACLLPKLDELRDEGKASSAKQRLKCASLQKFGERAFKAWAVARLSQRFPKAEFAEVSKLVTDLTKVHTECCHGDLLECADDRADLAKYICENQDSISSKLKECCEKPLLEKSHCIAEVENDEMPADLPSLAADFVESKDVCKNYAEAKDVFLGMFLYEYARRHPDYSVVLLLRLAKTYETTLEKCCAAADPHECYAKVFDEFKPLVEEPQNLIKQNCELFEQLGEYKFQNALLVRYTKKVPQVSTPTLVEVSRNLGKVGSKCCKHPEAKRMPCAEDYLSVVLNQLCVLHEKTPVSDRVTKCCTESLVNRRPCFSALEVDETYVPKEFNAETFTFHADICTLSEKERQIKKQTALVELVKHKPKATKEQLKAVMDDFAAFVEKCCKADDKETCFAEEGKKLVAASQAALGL

Row | Ki (human GnRH receptors) [nM] | Ki (mouse GnRH receptors) [nM] | Fem. Rat (FR) % rem. 30′ [1] [%] | Male Rat (MR) % rem. 30′ [1] [%] | Rat plasma % remain (Rat plasma % remain) [%] | H S A column α (H S A) | solubility ([2]; pH 2, simulated gastric fluid, pH2, read-out: Solubility μg/ml pH2) [µg/mL] | solubility [2, 3] [µg/mL] | SMILES
1 | 4.6 | 4.2 | 74 | 11 | 100 | 1 | > 12 | > 12 | COc1nc(OC)c(NC(=O)c2ccc(Cc3cc4c(cc3C)C(C)(C)OC4(C)C)o2)c(OC)n1 [Example A1, 5-(1,1,3,3,6-Pentamethyl-1,3-dihydro-isobenzofuran-5-ylmethyl)-furan-2-carboxylic Acid (2,4,6-trimethoxy-pyrimidin-5-yl)-amide]
2 | 7.7 |  | 75 | 44 | 100 | 0.4 |  | > 15 | COc1nc(OCCO)nc(OC)c1NC(=O)c1ccc(Cc2cc3c(cc2C)C(C)(C)OC3(C)C)o1 [Example A3, 5-(1,1,3,3,6-Pentamethyl-1,3-dihydro-isobenzofuran-5-ylmethyl)-furan-2-carboxylic acid [2-(2-hydroxy-ethoxy)-4,6-dimethoxy-pyrimidin-5-yl]-amide]
3 | 1.8 | 3.4 | 35 | 11 | 83 | >30 |  | 0.4 (≈ 0.79 µM) | COc1nc(N(C)C)nc(OC)c1NC(=O)c1ccc(Cc2cc3c(cc2C)C(C)(C)CCC3(C)C)o1 [Example B2, 5-(3,5,5,8,8-Pentamethyl-5,6,7,8-tetrahydro-naphthalen-2-ylmethyl)-furan-2-carboxylic Acid (dimethylamino-dimethoxy-pyrimidin-5-yl)-amide]
4 | 0.55 | 0.42 | 72 | 1 | 100 | 13 |  | 1 (≈ 2.03 µM) | COc1nc(OC)c(NC(=O)c2ccc(Cc3cc4c(cc3C)C(C)(C)CCC4(C)C)o2)c(OC)n1 [Example C1, 5-(3,5,5,8,8-Pentamethyl-5,6,7,8-tetrahydro-naphthalen-2-ylmethyl)-furan-2-carboxylic Acid (2,4,6-trimethoxy-pyrimidin-5-yl)-amide]
